Test results as given in patent publication US11649233B2, “Halo-allylamine SSAO/VAP-1 inhibitor and use thereof” (Nanjing Transthera Biosciences Co., Ltd., priority 2017, dated 2023).
Structures can show the parent of a compound that is named as a salt.

Assays:
rhVAP-1 = rhVAP-1 (Homo sapiens (Human), UniProt Q16853); experiment: Inhibition activity of the compounds on the rhVAP-1 enzyme (Amplex Red/HRP fluorescence, benzylamine substrate); assay type: biochemical; conditions: 30 minutes pre-incubation at 37° C.
rhVAP-1, sequence (Q16853 whole entry): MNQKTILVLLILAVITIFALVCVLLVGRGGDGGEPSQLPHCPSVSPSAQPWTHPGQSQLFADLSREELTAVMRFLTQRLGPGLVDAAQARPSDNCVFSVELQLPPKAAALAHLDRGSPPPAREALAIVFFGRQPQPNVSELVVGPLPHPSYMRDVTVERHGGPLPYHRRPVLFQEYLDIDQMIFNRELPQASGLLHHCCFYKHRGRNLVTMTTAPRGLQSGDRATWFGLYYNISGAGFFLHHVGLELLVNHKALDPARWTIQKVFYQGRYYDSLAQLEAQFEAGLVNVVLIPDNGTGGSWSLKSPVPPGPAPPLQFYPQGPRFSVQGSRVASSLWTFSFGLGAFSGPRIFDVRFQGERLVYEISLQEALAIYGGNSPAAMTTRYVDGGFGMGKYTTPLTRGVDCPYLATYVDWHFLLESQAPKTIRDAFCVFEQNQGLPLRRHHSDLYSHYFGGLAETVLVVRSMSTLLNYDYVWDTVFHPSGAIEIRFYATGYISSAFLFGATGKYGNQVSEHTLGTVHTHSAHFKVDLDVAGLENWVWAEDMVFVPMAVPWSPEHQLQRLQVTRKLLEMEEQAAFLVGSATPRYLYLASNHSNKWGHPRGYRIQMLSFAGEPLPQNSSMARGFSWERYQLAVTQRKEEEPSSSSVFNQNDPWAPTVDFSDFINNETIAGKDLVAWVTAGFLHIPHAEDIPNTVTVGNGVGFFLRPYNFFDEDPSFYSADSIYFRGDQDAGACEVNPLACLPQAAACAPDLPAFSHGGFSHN
Method: 1. Inhibition Activity of the Compounds on the rhVAP-1 Enzyme
Multifunctional microplate reader (MD, FlexStation 3), black bottom-impermeable 96-well plate (Corning), rhVAP-1 (PeproTech)
An appropriate amount of the test compound was dissolved in DMSO to 10 mM and stored. Before the experiment, an appropriate amount of 10 mM test compound mother liquor was diluted to 10 μM solution with DMSO. Then 3-fold gradient dilution with DMSO was performed, and 10 concentration gradients were formed.
An appropriate amount of protein diluent was added to the rhVAP-1 powder to obtain 1 mg/mL of the mother liquor for storage. Before the experiment, the dilution with PBS provided a 4×concentration of the enzyme solution.
An appropriate amount of benzylamine was added to PBS and dissolved to obtain 200 mM of the benzylamine solution. 2 mM Amplex Red mother liquor and 500 U/mL HRP mother liquor were added. The dilution with PBS provided 2×concentration substrate mixed solution.
First, 10 μL of compound solutions of different concentrations, 25 μL of 4×rhVAP-1 enzyme solution and 15 μL of PBS were added to a 96-well plate, evenly mixed by oscillation, and incubated at 37° C. for 30 minutes. Then 50 μL of 2×substrate mixed solution was added to each well, and immediately the detection was performed with the microplate reader in a condition of an exciting light at 565 nm, an emitting light at 590 nm, the fluorescence intensity for detecting each well of 5 minutes/run, and a total detection time of 25 minutes. The inhibition rate was calculated according to the following formula: V(RFU/min)=(Ft(RFU)−F0(RFU))/(Time(min)) Inhibition rate (%)=100%−Vcmpd(RFU/min)/V max(RFU/min)×100%
(§1) V: the fluorescence change rate; Ft: fluorescence reading at the time point t; F0: fluorescence reading at the time point 0; Time: time period t; Vcmpd: the fluorescence change rate of the test compound; Vmax: the Max well fluorescence change rate.
(§2) The log values of the concentrations were taken as the X-axis and the percent inhibition rates were taken as the Y-axis, and the dose-effect curve was fitted using the log(inhibitor) vs. response-Variable slope of the analytical software GraphPad Prism 5 to obtain the IC50 value of each compound for enzyme activity.

MAO-B = MAO-B (Homo sapiens (Human), UniProt P27338); experiment: Selectivity of the compounds for MAO-B enzyme (MAO-Glo); assay type: biochemical; conditions: 60 minutes pre-incubation at 37° C.
MAO-B, sequence (P27338 whole entry): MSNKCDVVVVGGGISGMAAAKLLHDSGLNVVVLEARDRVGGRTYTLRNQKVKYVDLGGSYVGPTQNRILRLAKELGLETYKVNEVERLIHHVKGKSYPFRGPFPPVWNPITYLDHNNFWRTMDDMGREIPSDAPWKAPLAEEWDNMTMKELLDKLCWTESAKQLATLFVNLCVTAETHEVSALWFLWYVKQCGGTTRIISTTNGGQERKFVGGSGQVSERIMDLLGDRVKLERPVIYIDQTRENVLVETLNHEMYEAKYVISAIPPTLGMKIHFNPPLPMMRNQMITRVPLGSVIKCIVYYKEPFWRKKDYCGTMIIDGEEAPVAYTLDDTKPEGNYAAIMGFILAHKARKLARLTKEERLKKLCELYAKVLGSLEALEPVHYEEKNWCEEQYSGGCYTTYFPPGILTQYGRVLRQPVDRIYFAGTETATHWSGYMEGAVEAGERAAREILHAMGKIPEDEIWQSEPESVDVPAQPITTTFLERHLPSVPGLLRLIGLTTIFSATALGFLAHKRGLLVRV
Method: (§3) 2. Selectivity of the Compounds for MAO-A/B Enzymes
(§4) Microplate reader (Perkin Elmer, Envision), 384 well plates (Perkin Elmer), centrifuge (Eppendorf), MAO-Glo™ (Promega), MAO-A (Active Motif) and MAO-B (Active Motif).
(§5) An appropriate amount of the test compound was dissolved in DMSO to 10 mM and stored. Before the experiment, an appropriate amount of 10 mM test compound mother liquor was diluted to 100 μM solution with DMSO. Then 4-fold gradient dilution with DMSO was performed, and 6 concentration gradients were formed.
(§6) The MAO-A/B mother liquor was diluted to 2×concentration enzyme solution with the assay buffer solution for the MAO-A/B.
(§7) The mother liquor of the MAO-A/B substrate mixed solution was diluted to 2×concentration substrate mixed solution with the assay buffer solution for the MAO-A/B.
(§8) 200 nL of compound solutions of different concentrations or solvent
(§9) and 10 μL of 2×MAO-A/B enzyme solution were added to a 384-well plate, evenly mixed by oscillation, and incubated at 37° C. for 60 minutes. Then 10 μL of 2×substrate mixed solution was added to each well, and immediately the detection was performed with the microplate reader in a condition of an exciting light at 535 nm, an emitting light at 587 nm, the fluorescence intensity for detecting each well of 5 minutes/run, and a total detection time of 25 minutes.
(§10) The inhibition rate was calculated according to the following formula: V(RFU/min)=(Ft(RFU)−F0(RFU))/(Time(min)) Inhibition rate (%)=100%−Vcmpd(RFU/min)/V max(RFU/min)×100%
as §1, §2

[1] = Stability test in human liver microsome; assay type: in vitro ADME; conditions: human liver microsome 0.5 mg protein/mL, compound 1 μM, β-NADPH
Method: Biological Example 3: Stability Test of the Compounds of the Present Invention in Human Liver Microsome
The composition of the incubation system:
(1) The liver microsome (20 mg protein/mL) was removed from the −80° C. refrigerator, pre-incubated in a 37° C. water bath constant temperature oscillator for 3 minutes, and thawed for use.
(2) A mixed solution of the incubation system (excluding compound and β-NADPH) according to the above “composition of the incubation system” for the test was prepared, and pre-incubated in a 37° C. water bath constant temperature oscillator for 2 minutes.
(3) Control group (excluding β-NADPH): 30 μL of water and 30 μL of compound working solution (concentration: 10 μM) were added to 240 μL of the mixed solution of the incubation system of step (2), and vortexed for 30 seconds to mix well. The total reaction volume was 300 μL. A duplicate sample was prepared. The sample was incubated in a 37° water bath constant temperature oscillator. The timing began and the sampling time points were set at 0 minute and 60 minutes.
(4) Sample group: 70 μL β-NADPH solution (10 mM) and 70 μL compound working solution (concentration: 10 μM) were added to 560 μL of the mixed solution in step (2). The total reaction volume was 700 μL. The resulting mixture was vortexed for 30 seconds to mix well. A duplicate sample was prepared. The sample was incubated in a 37° C. water bath constant temperature oscillator. The timing began and the sampling time points were set at 0 minute, 5 minutes, 10 minutes, 20 minutes, 30 minutes, and 60 minutes after timing.
(5) After vortexing for 3 minutes, the sample was centrifuged at 12000 rpm for 5 minutes.
(6) 150 μL of water was added to 50 μL of the supernatant. The resulting mixture was evenly mixed in vortex, and the sample LC/MS/MS analysis was performed.

[2] = In vitro stability test in the dog plasma; assay type: in vitro ADME; conditions: Beagle dog plasma, 37° C., 2 hours, 0.2 μM
Method: Biological Example 2: In Vitro Stability Test of the Compound of the Present Invention in the Dog Plasma
Test compound: about 2 mg of test compound was prepared with DMSO into a 5 mM stock solution, then diluted with DMSO to 1 mM solution, and finally diluted with water to 50 μM test compound working solution for use.
Termination solution: about 2 mg of tolbutamide compound was firstly prepared with DMSO into a 1 mg/mL stock solution, finally diluted with acetonitrile to 100 ng/mL termination solution, and stored at 4° C. for later use.
(1) Frozen Beagle dog plasma was pre-incubated and thawed in a 37° C. water bath constant temperature oscillator for use.
(2) 10 μL of test compound (10 μM) was added to 490M (Beagle dog plasma, final concentration of the test substance was 0.2 μM, two duplicate samples.
(3) The sample was evenly mixed in vortex and incubated in a 37° C. water bath constant temperature oscillator.
(4) At the corresponding time points (T=0 h, 0.5 h, 1 h, 2 h; sample at 0 h was not incubated), 400 μL of the termination solution was added to 40 μL of the reaction solution obtained by reacting the test compound of step (2) and the components in the blood plasma, and the resulting mixture was evenly mixed and frozen at −80° C. for storage. […]

MAO-A = MAO-A (Homo sapiens (Human), UniProt P21397); experiment: Selectivity of the compounds for MAO-A enzyme (MAO-Glo); assay type: biochemical; conditions: 60 minutes pre-incubation at 37° C.
MAO-A, sequence (P21397 whole entry): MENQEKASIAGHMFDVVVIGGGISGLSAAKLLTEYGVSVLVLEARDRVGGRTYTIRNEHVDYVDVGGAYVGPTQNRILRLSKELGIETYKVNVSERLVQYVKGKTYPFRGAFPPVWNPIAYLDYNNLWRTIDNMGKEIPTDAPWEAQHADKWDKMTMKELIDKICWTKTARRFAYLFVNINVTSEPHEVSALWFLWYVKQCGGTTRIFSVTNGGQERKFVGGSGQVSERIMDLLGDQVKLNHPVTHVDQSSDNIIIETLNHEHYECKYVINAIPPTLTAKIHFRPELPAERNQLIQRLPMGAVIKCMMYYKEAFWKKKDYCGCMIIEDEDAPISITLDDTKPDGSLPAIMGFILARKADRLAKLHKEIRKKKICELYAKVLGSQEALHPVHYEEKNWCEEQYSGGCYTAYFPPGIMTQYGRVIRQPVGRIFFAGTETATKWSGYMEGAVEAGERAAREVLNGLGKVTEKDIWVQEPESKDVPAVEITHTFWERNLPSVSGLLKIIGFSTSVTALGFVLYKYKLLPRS
Method: as §3, §4, §5, §6, §7, §8, §9, §10, §1, §2

IC50 (rhVAP-1): 18 nM
IC50 (MAO-B): 6.3 µM
ClH [1]: 4.63 mL/min/kg
Retention Rate [2]: 98.6%
IC50 (MAO-A): 1300 nM
SMILES: NC/C(=C\F)COc1ccc2c(c1)CCN(C1CC1)C2=O [Hydrochloride of Compound 5, (E)-6-((2-(aminomethyl)-3-fluoroallyl)oxy)-2-cyclopropyl-3,4-dihydroisoquinolin-1(2H)-one]
